Reference: ChEMBL document CHEMBL4373722, “Selective, Small-Molecule Co-Factor Binding Site Inhibition of a Su(var)3-9, Enhancer of Zeste, Trithorax Domain Containing Lysine Methyltransferase” (J Med Chem, 2019)
One block for each compound: values may come before it. The source made the active and inactive calls. No cut-off for these calls is given here.

Columns and labels:
[1] = target: T1, N-lysine methyltransferase SMYD2 (Homo sapiens, UniProt Q9NRG4); assay: Inhibition of recombinant human SMYD2 (1 to 433 residues) expressed in baculovirus infected Sf9 insect cells using biotinylated-p53 peptide (361 to 380 residues) as substrate measured after 50 mins in presence of 70 nM [3H]-SAM by scintillation proximity assay
[2] = target: T1, N-lysine methyltransferase SMYD2; assay: Inhibition of recombinant human SMYD2 (1 to 433 residues) expressed in baculovirus infected Sf9 insect cells using biotinylated-p53 peptide (361 to 380 residues) as substrate measured after 120 mins in presence of 20 uM [3H]-SAM by scintillation proximity assay
[3] = target: T1, N-lysine methyltransferase SMYD2; assay: Inhibition of recombinant human SMYD2 (1 to 433 residues) expressed in baculovirus infected Sf9 insect cells at 40 uM using biotinylated-p53 peptide (361 to 380 residues) as substrate measured after 50 mins in presence of 70 nM [3H]-SAM by scintillation proximity assay relative to control
[4] = target: T1, N-lysine methyltransferase SMYD2; assay: Inhibition of V5-tagged SMYD2 (unknown origin) transfected in human MCF7 cells co-transfected with FLAG-tagged p53 assessed as reduction in p53 methylation at K370 residue at 10 uM measured after 20 hrs by immunoblot analysis relative to control; format: cell-based
[5] = target: T1, N-lysine methyltransferase SMYD2; assay: Inhibition of V5-tagged SMYD2 (unknown origin) transfected in human HeLa cells co-transfected with FLAG-tagged p53 assessed as reduction in p53 methylation at K370 residue measured after 20 hrs by immunoblot analysis; format: cell-based
Homo sapiens [6] = organism: Homo sapiens; assay: Selectivity ratio of IC50 for SUV420H1 (unknown origin) to IC50 for recombinant human SMYD2 (1 to 433 residues) expressed in baculovirus infected Sf9 insect cells at 40 uM using biotinylated-p53 peptide (361 to 380 residues) as substrate measured after 50 mins in presence of 70 nM [3H]-SAM
[7] = target: Histone-lysine N-methyltransferase KMT5C (Homo sapiens) (UniProt Q86Y97); assay: Inhibition of SUV420H2 (unknown origin) at 1 uM using biotin-labeled peptide as substrate and [3H]-SAM measured after 1 hr by scintillation proximity assay
[8] = target: T1, N-lysine methyltransferase SMYD2; assay: Inhibition of V5-tagged SMYD2 (unknown origin) transfected in human U2OS cells co-transfected with FLAG-tagged p53 assessed as reduction in p53 methylation at K370 residue measured after 20 hrs by immunoblot analysis; format: cell-based
[9] = target: T1, N-lysine methyltransferase SMYD2; assay: Mixed inhibition of recombinant human SMYD2 (1 to 433 residues) expressed in baculovirus infected Sf9 insect cells using varying levels of biotinylated-p53 peptide (361 to 380 residues) as substrate measured after 50 mins in presence of 2 uM [3H]-SAM by scintillation proximity assay
[10] = target: Histone-lysine N-methyltransferase KMT5C (Homo sapiens) (UniProt Q86Y97); assay: Inhibition of SUV420H2 in human MCF7 cells assessed as decrease in H4K20me3 level up to 50 uM measured after 2 days by immunoblot analysis; format: cell-based
[11] = target: T1, N-lysine methyltransferase SMYD2; assay: Inhibition of V5-tagged SMYD2 (unknown origin) transfected in human MDA-MB-231 cells co-transfected with FLAG-tagged p53 assessed as reduction in p53 methylation at K370 residue measured after 20 hrs by immunoblot analysis; format: cell-based
[12] = target: T1, N-lysine methyltransferase SMYD2; assay: Inhibition of V5-tagged SMYD2 (unknown origin) transfected in human MCF7 cells co-transfected with FLAG-tagged p53 assessed as reduction in p53 methylation at K370 residue measured after 20 hrs by immunoblot analysis; format: cell-based
[13] = Lipophilicity, log D of the compound; format: physicochemical; settings: octanol/water
[14] = target: T1, N-lysine methyltransferase SMYD2; assay: Inhibition of V5-tagged SMYD2 (unknown origin) transfected in human CAL120 cells co-transfected with FLAG-tagged p53 assessed as reduction in p53 methylation at K370 residue measured after 20 hrs by immunoblot analysis; format: cell-based
U2OS = assay: Cytotoxicity against human U2OS cells up to 10 uM measured after 5 days by IncuCyte zoom live cell analysis; format: cell-based; settings: 120 h
Homo sapiens [15] = organism: Homo sapiens; assay: Selectivity ratio of IC50 for SUV420H1 in human MCF7 cells to IC50 for V5-tagged SMYD2 (unknown origin) transfected in human MCF7 cells co-transfected with FLAG-tagged p53; format: cell-based
Homo sapiens [16] = organism: Homo sapiens; assay: Selectivity ratio of IC50 for SUV420H2 in human MCF7 cells to IC50 for V5-tagged SMYD2 (unknown origin) transfected in human MCF7 cells co-transfected with FLAG-tagged p53; format: cell-based
[17] = target: T1, N-lysine methyltransferase SMYD2; assay: Inhibition of V5-tagged SMYD2 (unknown origin) transfected in HEK293 cells co-transfected with FLAG-tagged p53 assessed as reduction in p53 methylation at K370 residue measured after 20 hrs by immunoblot analysis; format: cell-based
[18] = target: Histone-lysine N-methyltransferase KMT5B (Homo sapiens) (UniProt Q4FZB7); assay: Inhibition of SUV420H1 in human MCF7 cells assessed as decrease in H4K20me3 level up to 50 uM measured after 2 days by immunoblot analysis; format: cell-based
[19] = Cytotoxicity against human TERA2D cells up to 10 uM measured after 5 days by IncuCyte zoom live cell analysis; format: cell-based; settings: 120 h
[20] = target: T1, N-lysine methyltransferase SMYD2; assay: Competitive inhibition of recombinant human SMYD2 (1 to 433 residues) expressed in baculovirus infected Sf9 insect cells using biotinylated-p53 peptide (361 to 380 residues) as substrate measured after 50 mins in presence of varying levels of [3H]-SAM by scintillation proximity assay
MCF7 [21] = assay: Cytotoxicity against human MCF7 cells up to 10 uM measured after 5 days by IncuCyte zoom live cell analysis; format: cell-based; settings: mcf7, 120 h
Homo sapiens [22] = organism: Homo sapiens; assay: Selectivity ratio of IC50 for SUV420H2 (unknown origin) to IC50 for recombinant human SMYD2 (1 to 433 residues) expressed in baculovirus infected Sf9 insect cells at 40 uM using biotinylated-p53 peptide (361 to 380 residues) as substrate measured after 50 mins in presence of 70 nM [3H]-SAM
[23] = target: Histone-lysine N-methyltransferase KMT5B (Homo sapiens) (UniProt Q4FZB7); assay: Inhibition of SUV420H1 (unknown origin) at 1 uM using biotin-labeled peptide as substrate and [3H]-SAM measured after 1 hr by scintillation proximity assay
[24] = target: T1, N-lysine methyltransferase SMYD2; assay: Inhibition of V5-tagged SMYD2 (unknown origin) transfected in human MCF7 cells co-transfected with FLAG-tagged p53 assessed as reduction in p53 methylation at K370 residue at 10 to 30 uM measured after 20 hrs by immunoblot analysis; format: cell-based
[25] = target: T1, N-lysine methyltransferase SMYD2; settings: MCF7, 1 uM
Description: Inhibition of V5-tagged SMYD2 (unknown origin) transfected in human MCF7 cells co-transfected with FLAG-tagged p53 assessed as reduction in p53 methylation at K370 residue at 1 uM measured after 20 hrs by immunoblot analysis relative to control

[26] = target: T1, N-lysine methyltransferase SMYD2; assay: Inhibition of V5-tagged SMYD2 (unknown origin) transfected in human MCF7 cells co-transfected with FLAG-tagged p53 assessed as reduction in p53 methylation at K370 residue at 30 uM measured after 20 hrs by immunoblot analysis; format: cell-based
MCF7 [27] = assay: Effect on total p53 level in human MCF7 cells co-transfected with V5-tagged SMYD2/FLAG-tagged p53 up to 30 uM measured after 20 hrs by immunoblot analysis; format: ADME, cell-based; settings: mcf7, 20 h

T1 sequence (Q9NRG4 whole entry, the tested form may be a part): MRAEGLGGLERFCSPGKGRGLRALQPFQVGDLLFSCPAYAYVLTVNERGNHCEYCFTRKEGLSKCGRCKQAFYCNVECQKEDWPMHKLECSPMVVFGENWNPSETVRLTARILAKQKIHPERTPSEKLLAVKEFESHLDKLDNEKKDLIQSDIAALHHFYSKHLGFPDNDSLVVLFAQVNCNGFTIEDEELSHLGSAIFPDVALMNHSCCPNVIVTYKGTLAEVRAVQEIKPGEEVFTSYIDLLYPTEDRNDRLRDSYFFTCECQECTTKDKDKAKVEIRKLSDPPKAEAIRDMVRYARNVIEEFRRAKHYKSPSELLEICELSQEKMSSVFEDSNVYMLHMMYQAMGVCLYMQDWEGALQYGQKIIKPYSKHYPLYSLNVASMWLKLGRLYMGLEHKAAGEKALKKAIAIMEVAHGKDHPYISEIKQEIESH
Sequence of Histone-lysine N-methyltransferase KMT5B (Homo sapiens) (Q4FZB7 whole entry, looked up): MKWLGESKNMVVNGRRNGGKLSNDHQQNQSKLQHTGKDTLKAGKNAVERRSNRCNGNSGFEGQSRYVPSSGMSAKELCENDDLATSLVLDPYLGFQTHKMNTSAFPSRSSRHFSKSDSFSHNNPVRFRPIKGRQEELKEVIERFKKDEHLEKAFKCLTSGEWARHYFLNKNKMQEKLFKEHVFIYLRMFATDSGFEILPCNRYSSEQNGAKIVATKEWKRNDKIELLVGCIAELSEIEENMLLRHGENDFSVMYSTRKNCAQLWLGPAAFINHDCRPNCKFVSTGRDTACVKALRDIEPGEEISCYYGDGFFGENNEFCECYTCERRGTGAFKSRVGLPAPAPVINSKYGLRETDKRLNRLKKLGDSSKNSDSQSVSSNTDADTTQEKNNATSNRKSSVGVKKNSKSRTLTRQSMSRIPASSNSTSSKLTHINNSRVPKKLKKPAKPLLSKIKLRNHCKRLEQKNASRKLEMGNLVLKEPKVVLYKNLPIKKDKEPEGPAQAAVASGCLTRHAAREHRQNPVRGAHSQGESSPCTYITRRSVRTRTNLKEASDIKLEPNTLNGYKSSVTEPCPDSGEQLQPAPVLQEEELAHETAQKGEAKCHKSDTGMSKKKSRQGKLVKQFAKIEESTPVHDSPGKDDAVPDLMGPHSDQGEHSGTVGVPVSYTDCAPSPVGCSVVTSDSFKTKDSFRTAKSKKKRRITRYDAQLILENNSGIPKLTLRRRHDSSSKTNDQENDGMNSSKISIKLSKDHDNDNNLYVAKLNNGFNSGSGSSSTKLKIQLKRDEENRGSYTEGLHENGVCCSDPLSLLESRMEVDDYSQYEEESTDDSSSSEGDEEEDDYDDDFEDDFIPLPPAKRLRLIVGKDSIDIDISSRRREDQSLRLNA
Sequence of Histone-lysine N-methyltransferase KMT5C (Homo sapiens) (Q86Y97 whole entry, looked up): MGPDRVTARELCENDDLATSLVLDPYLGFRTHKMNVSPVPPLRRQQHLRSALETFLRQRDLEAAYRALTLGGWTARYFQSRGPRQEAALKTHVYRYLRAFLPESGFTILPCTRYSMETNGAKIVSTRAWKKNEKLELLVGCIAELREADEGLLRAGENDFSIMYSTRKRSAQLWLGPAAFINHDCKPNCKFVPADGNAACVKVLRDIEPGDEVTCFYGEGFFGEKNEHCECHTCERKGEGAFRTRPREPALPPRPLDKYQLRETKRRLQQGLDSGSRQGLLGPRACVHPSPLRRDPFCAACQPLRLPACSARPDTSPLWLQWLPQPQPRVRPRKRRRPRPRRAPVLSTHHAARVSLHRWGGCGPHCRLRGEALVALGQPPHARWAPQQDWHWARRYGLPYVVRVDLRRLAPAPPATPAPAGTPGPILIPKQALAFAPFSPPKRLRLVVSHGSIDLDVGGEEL

SMILES: Cc1nc(N)c2ncn(C3CN(C(=O)c4cc(CC5CCN(C6CCCCCC6)CC5)n(C)n4)C3)c2n1
IC50 [1]: 32 nM
IC50 [2]: 3000 nM

SMILES: CC(C)N1CCN(Cc2cc(C(=O)N3CC(n4cnc5c(N)ncnc54)C3)nn2C)CC1
IC50 [1]: 760 nM
inhibition [3]: > 50%

SMILES: CCN(C(=O)CO)[C@H]1CN(/C(=N\C#N)Nc2cccc(OC(F)F)c2)N=C1c1ccc(Cl)c(Cl)c1
inhibition [25]: 100%

Further lines, with some results ahead:

inhibition [4]: 100%
IC50 [5]: 1300 to 3000 nM
inhibition [7]: Active
IC50 [8]: 1300 to 3000 nM
inhibition [9]: Active
inhibition [10]: inactive
IC50 [11]: 1300 to 3000 nM
IC50 [1]: 8 nM
IC50 [12]: 1300 nM
logD [13]: 1.3
IC50 [14]: 1300 to 3000 nM
IC50 [17]: 1300 to 3000 nM
inhibition [18]: inactive
IC50 [2]: 16 nM
inhibition [20]: Active
inhibition [23]: Active
SMILES: Cc1cc2c(ncn2C2(C)CN(C(=O)c3ccn(CC4CCN([C@H]5C=CCCCC5)CC4)c3)C2)c(N)n1
Ratio IC50 (Homo sapiens [6]): > 60
Activity (U2OS): Non-Toxic
Ratio IC50 (Homo sapiens [15]): 30
Ratio IC50 (Homo sapiens [16]): 30
Activity [19]: Non-Toxic
Activity (MCF7 [21]): Non-Toxic
Ratio IC50 (Homo sapiens [22]): > 60

inhibition [24]: inactive
SMILES: Cc1cc2c(ncn2C2(C)CN(C(=O)c3ccn(CC4CCN([C@@H]5C=CCCCC5)CC4)c3C)C2)c(N)n1

IC50 [1]: 58 nM
IC50 [2]: 3000 nM
SMILES: Cc1nc(N)c2ncn(C3(C)CN(C(=O)c4cc(CN5CCN(C6CCCCCC6)CC5)n(C)n4)C3)c2n1

IC50 [1]: 23 nM
IC50 [2]: 4000 nM
SMILES: Cc1nc(N)c2ncn(C3CN(C(=O)c4ccn(CC5CCN(C6CCCCCC6)CC5)c4)C3)c2n1

inhibition [26]: Active
IC50 [1]: 6 nM
IC50 [2]: 23 nM
SMILES: Cc1nc(N)c2ncn(C3CN(C(=O)c4ccn(CC5CCN(C6C=CCCCC6)CC5)c4)C3)c2n1 (configuration not stated)
Activity (MCF7 [27]): Non-Toxic
